Measured values as given in patent US10993957B2 (NuCana plc, priority 2011, dated 2021).
Like-named read-outs stand apart in the source and are kept apart here.

Assays:
L1210/0 = assay: Cytostatic assay, L1210/0 cells; type: cell-based, murine; settings: for IC50: read-out: IC50 L1210/0
Text: (§1) The cell lines employed were L1210/0 (a leukemia cell line), FM3A/0 (a breast cancer cell line), Cem/0 (an acute lymphoblastic leukemia cell line) and HeLa (a cervical cell line).

L1210/TK^− = assay: Cytostatic assay, thymidine kinase-deficient L1210/TK^− cells; type: cell-based, murine; settings: for CC50: L1210, Table 1, read-out: CC50 L1210/TK^−; for IC50: Table 6, read-out: IC50 L1210/TK^−
Cem/0 = assay: Cytostatic assay, CEM/0 cells; type: cell-based, human; settings: for CC50: Table 1, read-out: CC50 Cem/0; for IC50: Table 6, read-out: IC50 Cem/0
Text: as §1

Cem/TK^− = assay: Cytostatic assay, thymidine kinase-deficient CEM/TK^− cells; type: cell-based, human; settings: for CC50: Table 1, read-out: CC50 Cem/TK^−; for IC50: Table 6, read-out: IC50 Cem/TK^−
HeLa = assay: Cytostatic assay, HeLa cells; type: cell-based; settings: for IC50: Table 6, read-out: IC50 HeLa; for CC50: Table 1, read-out: CC50 HeLa
Text: as §1

HeLa/TK^− = assay: Cytostatic assay, HeLa/TK^− cells; type: cell-based; settings: for IC50: Table 6, read-out: IC50 HeLa/TK^−; for CC50: Table 1, read-out: CC50 HeLa/TK^−
Text: as §1

L1210.Hyor = assay: Cytostatic assay, Mycoplasma hyorhinis-infected L1210 cells; settings: for % Retention: CC50 L1210 × 100 ÷ CC50 L1210/Hyor
Text: Murine leukaemia L1210/0 and human T-lymphocyte CEM/0 cells were obtained from the American Type Culture Collection (ATCC) (Rockville, Md.). Human glioblastoma U87 cells were kindly provided by Dr. E. Menue (Institut Pasteur, Paris, France). […] S. Eriksson (currently at Uppsala University, Uppsala, Sweden) and Prof A. Karlsson (Karolinska Institute, Stockholm, Sweden). […] All cells were maintained in Dulbecco's modified Eagle's medium (DMEM) (Invitrogen, Carlsbad, Calif.) with 10% foetal bovine serum (FBS) (Biochrom AG, Berlin, Germany), 10 mM Hepes and 1 mM Sodium Pyruvate (Invitrogen). Cells were grown at 37° C. in a humidified incubator with a gas phase of 5% CO2.
Monolayer cells (U87 and U87.Hyor) were seeded in 48-well microtiter plates (Nunc™, Roskilde, Denmark) at 10,000 cells/well. After 24 hours, an equal volume of fresh medium containing the test compounds was added. On day 5, cells were trypsinized and counted in a Coulter counter (Analis, Suarlée, Belgium). Suspension cells (L1210/0, L1210/TK^−, L1210.Hyor, CEM/0, CEM/TK^−) were seeded in 96-well microtiter plates (Nunc™) at 60,000 cells/well in the presence of a given amount of the test compounds. The cells were allowed to proliferate for 48 h (L1210) or 72 hours (CEM) and were then counted in a Coulter counter.
Samples were also assayed for their % retention of activity in mycoplasma infected cells.
The L1210/0 cell cultures were infected with the mycoplasma species M. hyorhinis (cells designated: L1210.Hyor).

Cem/hEnt-1 = assay: Cytostatic assay, CEM cells containing the hEnt1 transporter; type: cell-based
Text: (§2) Data are mean (±SD) of at least two to four independent experiments. Table 8 identifies the phosphoramidate motif of compounds embodying the present invention, as discussed above with respect to Table 6, but with “Naph” standing for 1-naphthyl.

Cem/hEnt-0 = assay: Cytostatic assay, CEM cells lacking the hEnt1 transporter; type: cell-based; settings: read-out: IC50 Cem/hEnt-0
Text: as §2

[1] = Mus musculus, L1210/0, Table 1, read-out: CC50 L1210/0
[2] = Mus musculus, L1210/0, Table 2, mycoplasma negative cells, read-out: CC50 L1210
[3] = Mus musculus, L1210, read-out: CC50 L1210/Hyor
[4] = Mus musculus, L1210, read-out: IC50 L1210.Hyor
[5] = Homo sapiens, CCRF-CEM, read-out: IC50 Cem/hEnt-1
[6] = read-out: IC50 Cem/hEnt-1 + NBMPR, in the presence of NBMPR
[7] = read-out: IC50 Cem/hEnt-1 + dipyridamole, in the presence of dipyridamole
[8] = read-out: IC50 L1210.Hyor, Table 7

Structure (SMILES) | CC50 (L1210/0; [1]) | CC50 (L1210/0; [2]) | IC50 (L1210/0; Mus musculus, L1210/0, Table 6) | IC50 (L1210/0; Mus musculus, L1210/0, Table 7) | CC50 (L1210/TK^−; Mus musculus) | IC50 (L1210/TK^−; Mus musculus, L1210) | CC50 (Cem/0; Homo sapiens, CCRF-CEM) | IC50 (Cem/0; Homo sapiens, CCRF-CEM) | CC50 (Cem/TK^−; Homo sapiens, CEM-TK(-)) | IC50 (Cem/TK^−; Homo sapiens, CEM-TK(-)) | IC50 (HeLa; Homo sapiens, HeLa) | IC50 (HeLa/TK^−; Homo sapiens, HeLa) | % Retention (L1210.Hyor) | CC50 (L1210.Hyor; [3]) | IC50 (L1210.Hyor; [4]) | IC50(L1210.Hyor)/IC50(L1210/0) (L1210.Hyor; Table 7) | IC50 (L1210/0; Table 6) | IC50 (L1210/0; Table 7) | IC50 (L1210/TK^−) | IC50 (Cem/0) | further results
CC(C)(NP(=O)(OC[C@H]1O[C@@H](n2cc(F)c(=O)[nH]c2=O)CC1O)Oc1ccccc1)C(=O)OCc1ccccc1 (stereo partly drawn) [CPF 393, 5-Fluoro-2′deoxyuridine-5′-O-[phenyl (benzoxy-α,α-dimethylglycine)]phosphate] | 17 ± 3 nM | 29 nM | 17 ± 3 nM | 29 ± 1 nM | 180 ± 50 nM | 180 ± 50 nM | 230 ± 40 nM | 230 ± 40 nM | 4800 ± 700 nM | 4800 ± 700 nM | 240 ± 70 nM | 3700 ± 100 nM | 145% | 20 nM | 20 ± 2 nM | 0.69 | – | – | – | – | IC50 (Cem/hEnt-1; [5]): 170 ± 60 nM; IC50 (Cem/hEnt-1; [6]): 610 nM; IC50 (Cem/hEnt-1; [7]): 260 nM; IC50 (Cem/hEnt-0; Homo sapiens, CCRF-CEM): 1200 ± 110 nM
CC(C)(NP(=O)(OCC1OC(n2cc(F)c(=O)[nH]c2=O)CC1O)Oc1cccc2ccccc12)C(=O)OCc1ccccc1 (stereo not drawn) [CPF 395, 5-Fluoro-2′deoxyuridine-5′-O-[1-naphthyl (benzoxy-α,α-dimethylglycine)]phosphate] | – | – | – | – | – | – | – | – | – | – | – | – | 42% | – | – | 2.4 | 11 ± 5 nM | 19 ± 4 nM | 130 ± 40 nM | 160 ± 20 nM | CC50 (L1210/0; Table 2, mycoplasma negative cells, read-out: CC50 L1210): 19 nM; IC50 (Cem/TK^−): 2400 ± 800 nM; IC50 (HeLa): 78 ± 20 nM; IC50 (HeLa/TK^−): 3100 ± 600 nM; CC50 (L1210.Hyor; read-out: CC50 L1210/Hyor, Table 2, mycoplasma positive cells): 45 nM; IC50 (L1210.Hyor; [8]): 45 ± 4 nM; IC50 (Cem/hEnt-1; Table 8, read-out: IC50 Cem/hEnt-1): 50 ± 30 nM; IC50 (Cem/hEnt-1; in the presence of NBMPR, read-out: IC50 Cem/hEnt-1 + NBMPR): 280 nM; IC50 (Cem/hEnt-1; in the presence of dipyridamole, read-out: IC50 Cem/hEnt-1 + dipyridamole): 160 nM; IC50 (Cem/hEnt-0; Table 8): 400 ± 130 nM
CCOC(=O)C(C)(C)NP(=O)(OC[C@H]1O[C@@H](n2cc(F)c(=O)[nH]c2=O)CC1O)Oc1ccccc1 (stereo partly drawn) [CPF 394, 5-Fluoro-2′deoxyuridine-5′-O-[phenyl (ethoxy-α,α-dimethylglycine)]phosphate] | 39 ± 1 nM | 30 nM | 39 ± 1 nM | 30 ± 0.5 nM | 4600 nM | 4600 nM | 650 ± 160 nM | 650 ± 160 nM | 22000 ± 1000 nM | 22000 ± 1000 nM | 590 ± 90 nM | 17000 ± 2000 nM | 12% | 260 nM | 260 ± 10 nM | 8.7 | – | – | – | – | IC50 (Cem/hEnt-1; [5]): 370 ± 140 nM; IC50 (Cem/hEnt-1; [6]): 2560 nM; IC50 (Cem/hEnt-1; [7]): 2350 nM; IC50 (Cem/hEnt-0; Homo sapiens, CCRF-CEM): 5800 ± 500 nM
CSCC[C@H](NP(=O)(OC[C@H]1O[C@@H](n2cc(F)c(=O)[nH]c2=O)CC1O)Oc1ccccc1)C(=O)OCc1ccccc1 (stereo partly drawn) [CPF 586, 5-Fluoro-2′-deoxyuridine-5′-O-[phenyl-(benzoxy-L-methioninyl)] phosphate] | 73 ± 35 nM | 100 nM | 73 ± 35 nM | 58 ± 35 nM | 4100 ± 1200 nM | 4100 ± 1200 nM | 280 ± 30 nM | 280 ± 30 nM | 25000 nM | 25000 nM | 150 ± 20 nM | 11000 ± 7000 nM | 11% | 870 nM | 760 ± 180 nM | 13 | – | – | – | – | CC50 (HeLa; Homo sapiens, HeLa): 150 ± 20 nM; CC50 (HeLa/TK^−; Homo sapiens, HeLa): 11000 ± 7000 nM
COC(=O)[C@H](C)NP(=O)(OC[C@H]1O[C@@H](n2cc(F)c(=O)[nH]c2=O)CC1O)Oc1ccccc1 (stereo partly drawn) [CPF 382, 5-Fluoro-2′-deoxyuridine-5′-O-[phenyl(methoxy-L-alaninyl)] phosphate, reference compound] | 25.5 nM | – | 22 ± 7 nM | 40 ± 16 nM | 37800 nM | 41000 ± 3000 nM | 346 nM | 700 ± 370 nM | 32700 nM | 35000 ± 12000 nM | 280 ± 140 nM | 4700 ± 400 nM | – | – | 870 ± 280 nM | 22 | – | – | – | – | –
O=c1[nH]c(=O)n([C@H]2C[C@H](O)[C@@H](COP(=O)(O)O)O2)cc1F [5-FdUMP, 5-fluoro-2′-deoxyuridine-5′-monophosphate, reference compound] | – | – | – | – | – | – | – | – | – | – | – | – | – | – | – | – | – | – | – | – | IC50 (Cem/hEnt-1; Homo sapiens, CCRF-CEM, Table 8, read-out: IC50 Cem/hEnt-1): 50 ± 20 nM; IC50 (Cem/hEnt-1; Homo sapiens, CCRF-CEM, in the presence of NBMPR, read-out: IC50 Cem/hEnt-1 + NBMPR): 1060 nM; IC50 (Cem/hEnt-1; Homo sapiens, CCRF-CEM, in the presence of dipyridamole, read-out: IC50 Cem/hEnt-1 + dipyridamole): 1740 nM; IC50 (Cem/hEnt-0; Homo sapiens, CCRF-CEM, Table 8): 3600 ± 690 nM
CCCCCOC(=O)C(NP(=O)(OCC1OC(n2cc(F)c(=O)[nH]c2=O)CC1O)Oc1cccc2ccccc12)C(C)CC (mixture of isomers) [Nap Pnt Ile] | – | – | – | – | – | – | – | – | – | – | – | – | – | – | – | 1.67 | 220 ± 120 nM | 420 ± 21 nM | 12000 ± 2000 nM | 460 ± 110 nM | IC50 (Cem/TK^−): 17000 ± 1000 nM; IC50 (HeLa): 300 ± 20 nM; IC50 (HeLa/TK^−): 11000 ± 1000 nM; IC50 (L1210.Hyor; [8]): 700 ± 74 nM
C[C@H](NP(=O)(OC[C@H]1O[C@@H](n2cc(F)c(=O)[nH]c2=O)C[C@@H]1O)Oc1ccccc1)C(=O)OC1CCCCC1 (stereo partly drawn) [CPF 508, 5-Fluoro-2′deoxyuridine-5′-O-[phenyl (cyclohexoxy-L-alaninyl)] phosphate] | – | – | – | – | – | – | – | – | – | – | – | – | – | – | – | 1.25 | 39 ± 1 nM | 32 ± 5 nM | 140 ± 20 nM | 170 ± 70 nM | IC50 (Cem/TK^−): 1200 ± 10 nM; IC50 (HeLa): 180 ± 50 nM; IC50 (HeLa/TK^−): 5900 ± 400 nM; IC50 (L1210.Hyor; [8]): 40 ± 16 nM
C[C@H](NP(=O)(OC[C@H]1O[C@@H](n2cc(F)c(=O)[nH]c2=O)CC1O)Oc1cccc2ccccc12)C(=O)OC1CCCC1 (stereo partly drawn) [CPF 582, 5-Fluoro-2′-deoxyuridine-5′-O-[1-naphthyl-(cyclopentoxy-L-alaninyl)]phosphate] | 31 ± 10 nM | 35 nM | 31 ± 10 nM | 16 ± 0.7 nM | 130 ± 20 nM | 130 ± 20 nM | 35 ± 25 nM | 350 ± 25 nM | 920 ± 7 nM | 920 ± 7 nM | 71 ± 36 nM | 2200 ± 1300 nM | 83% | 42 nM | 24 ± 5 nM | 1.5 | – | – | – | – | CC50 (HeLa; Homo sapiens, HeLa): 71 ± 36 nM; CC50 (HeLa/TK^−; Homo sapiens, HeLa): 2200 ± 1300 nM
CCCCCOC(=O)C(Cc1ccccc1)NP(=O)(OCC1OC(n2cc(F)c(=O)[nH]c2=O)CC1O)Oc1cccc2ccccc12 (mixture of isomers) [Nap Pnt Phe] | – | – | – | – | – | – | – | – | – | – | – | – | – | – | – | 4.67 | 26 ± 1 nM | 30 ± 3.9 nM | 2900 ± 1200 nM | 100 nM | IC50 (Cem/TK^−): 8300 ± 1000 nM; IC50 (HeLa): 40 nM; IC50 (HeLa/TK^−): 6600 ± 500 nM; IC50 (L1210.Hyor; [8]): 140 ± 7 nM
